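Briefly, cells in 96-well plates were exposed to five compound concentrations for 48 h, and endpoints were estimated by linear interpolation. Abbreviation: GI50, concentration required for 50% inhibition of growth. TGI: concentration producing complete growth inhibition.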
Legend:
Experiment in all cases: growth of human tumour cells (NCI), 48 h
DMS 114 small cell lung = system: DMS 114 small cell lung
DMS 273 small cell lung = system: DMS 273 small cell lung
KM20L2 colon = system: KM20L2 colon
LXFL 529 NSCLC = system: LXFL 529 NSCLC
M19-MEL melanoma = system: M19-MEL melanoma
SNB-78 CNS = system: SNB-78 CNS
A498 renal = system: A498 renal
DLD-1 colon = system: DLD-1 colon
XF 498 CNS = system: XF 498 CNS
DU-145 prostate = system: DU-145 prostate
MDA-MB-435 = system: MDA-MB-435
MDA-N = system: MDA-N
PC-3 prostate = system: PC-3 prostate
MDA-MB-231 breast = system: MDA-MB-231 breast
T-47D breast = system: T-47D breast

Compound	TGI (DMS 114 small cell lung)	TGI (DMS 273 small cell lung)	TGI (KM20L2 colon)	TGI (LXFL 529 NSCLC)	TGI (M19-MEL melanoma)	TGI (SNB-78 CNS)	TGI (A498 renal)	TGI (DLD-1 colon)	TGI (XF 498 CNS)	TGI (DU-145 prostate)	TGI (MDA-MB-435)	TGI (MDA-N)	TGI (PC-3 prostate)	TGI (MDA-MB-231 breast)	GI50 (DU-145 prostate)	GI50 (MDA-MB-231 breast)	GI50 (MDA-MB-435)	GI50 (PC-3 prostate)	GI50 (T-47D breast)	TGI (T-47D breast)
COc1ccc(-c2nnc3c4ccccc4sn23)cc1	93.8 µM	> 100 µM	> 100 µM	> 100 µM	> 100 µM	> 100 µM	–	–	–	–	–	–	–	–	–	–	–	–	–	–
O=C1CNC(=O)N1	> 1120 µM	> 1120 µM	> 1120 µM	–	> 1120 µM	> 1120 µM	> 1120 µM	> 1120 µM	> 11.2 µM	–	–	–	–	–	–	–	–	–	–	–
COc1ccc2c(c1)C(=O)/C(=C/c1ccccc1)C2	–	–	–	–	–	–	> 100 µM	–	–	> 100 µM	> 100 µM	> 100 µM	> 100 µM	–	–	–	–	–	–	–
Cc1cc(C)c(S(=O)(=O)N(CCCCCCN)OCCCON(CCCCCCN)S(=O)(=O)c2c(C)cc(C)cc2C)c(C)c1	–	–	–	–	–	–	3.02 µM	–	–	2.76 µM	3.99 µM	3.61 µM	3.15 µM	3.21 µM	–	–	–	–	–	–
Fc1cc(C2=Nn3c(nnc3-c3cc(F)c(Cl)cc3Cl)SC2)c(Cl)cc1Cl	–	–	–	–	–	–	–	–	–	> 100 µM	83.2 µM	–	> 100 µM	34.5 µM	36.6 µM	13.4 µM	27.8 µM	16.9 µM	4.93 µM	32.5 µM
CC1(C)CCCC2(C)[C@@H]1CC[C@]13C[C@](C)(CC[C@@H]21)[C@@H]3CO (stereo partly drawn)	> 100 µM	> 100 µM	> 100 µM	> 100 µM	> 100 µM	> 100 µM	–	> 100 µM	> 100 µM	–	–	–	–	–	–	–	–	–	–	–
O=c1n(Cc2ccccc2)c2ccccc2n1CC1CS1 (stereo not drawn)	> 100 µM	> 100 µM	> 100 µM	> 100 µM	> 100 µM	–	–	–	> 100 µM	–	–	–	–	–	–	–	–	–	–	–
COc1cc(CN(C)N2C(=O)c3cccc4cc([N+](=O)[O-])cc(c34)C2=O)cc(OC)c1OC	–	–	–	–	–	–	> 100 µM	–	–	> 100 µM	> 100 µM	> 100 µM	> 100 µM	> 100 µM	–	–	–	–	–	> 100 µM
CCOC(=O)c1csc(NC(=O)CCN2CCOCC2)n1	–	–	–	–	–	–	> 100 µM	–	–	> 100 µM	> 100 µM	> 100 µM	> 100 µM	> 100 µM	–	–	–	–	–	> 100 µM

Reference: PubChem BioAssay (NCI)
